Reference: patent publication US7323490B2, “Pyrrole compounds and uses thereof” (Ambit Biosciences Corporation, priority 2003, dated 2008)

How the values were obtained:
CLB2 = biological target: T1, CLB2 (Homo sapiens, UniProt P22676); assay: T7 phage display competition binding assay (immobilized atorvastatin), CLB2; details: soluble competitor vs atorvastatin-coated affinity matrix; T7 phage displaying CLB2
T1 construct: made in house; host or cells: T7 phage amplified in E. coli
T1 sequence (P22676 1-271): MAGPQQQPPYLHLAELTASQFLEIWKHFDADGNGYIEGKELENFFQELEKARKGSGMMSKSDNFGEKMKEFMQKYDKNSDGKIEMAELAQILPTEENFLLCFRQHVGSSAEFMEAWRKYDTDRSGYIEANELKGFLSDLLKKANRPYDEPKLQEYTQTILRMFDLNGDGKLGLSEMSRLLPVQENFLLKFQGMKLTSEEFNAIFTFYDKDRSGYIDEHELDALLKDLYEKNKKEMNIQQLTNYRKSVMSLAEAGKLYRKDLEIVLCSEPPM
Excerpt: (§1) The T7 phage displaying human PDE6D and CLB2 were obtained following the procedure of WO 01/18234, published Mar. 15, 2001, and U.S. patent applications Ser. No. 10/115,442, “Phage Display Affinity Filter and Forward Screen,” filed Apr. 2, 2002 and Ser. No. 10/214,654, “Uncoupling DNA Insert Propagation and Protein Display,” filed Aug. 7, 2002. […] The phage eluate was then amplified by growth in E. coli and the affinity enrichment procedure was repeated.
(§2) The dissociation constants, Kd's, for the interaction between the pyrrole compounds and the novel targets were obtained following the procedure of the co-pending patent applications U.S. Ser. Nos. 10/115,442, “Phage Display Affinity Filter and Forward Screen,” filed Apr. 2, 2002 and 60/480,587, “Protein Family Profiling Tool and Methods,” filed Jun. 20, 2003.

PDE6D [1] = biological target: T2, PDE6D (Homo sapiens, UniProt O43924); assay: T7 phage display competition binding assay (immobilized atorvastatin), PDE6D; design: made in house; host or cells: T7 phage amplified in E. coli; details: soluble competitor vs atorvastatin-coated affinity matrix; T7 phage displaying human PDE6D
Excerpt: as §1, §2

HMG-CoA reductase = biological target: T3, HMG-CoA reductase (Homo sapiens, UniProt P04035); assay: enzymatic activity-based HMG-CoA reductase assay; assay type: biochemical; details: concentrations up to 4 μM
T3 sequence (P04035 1-888): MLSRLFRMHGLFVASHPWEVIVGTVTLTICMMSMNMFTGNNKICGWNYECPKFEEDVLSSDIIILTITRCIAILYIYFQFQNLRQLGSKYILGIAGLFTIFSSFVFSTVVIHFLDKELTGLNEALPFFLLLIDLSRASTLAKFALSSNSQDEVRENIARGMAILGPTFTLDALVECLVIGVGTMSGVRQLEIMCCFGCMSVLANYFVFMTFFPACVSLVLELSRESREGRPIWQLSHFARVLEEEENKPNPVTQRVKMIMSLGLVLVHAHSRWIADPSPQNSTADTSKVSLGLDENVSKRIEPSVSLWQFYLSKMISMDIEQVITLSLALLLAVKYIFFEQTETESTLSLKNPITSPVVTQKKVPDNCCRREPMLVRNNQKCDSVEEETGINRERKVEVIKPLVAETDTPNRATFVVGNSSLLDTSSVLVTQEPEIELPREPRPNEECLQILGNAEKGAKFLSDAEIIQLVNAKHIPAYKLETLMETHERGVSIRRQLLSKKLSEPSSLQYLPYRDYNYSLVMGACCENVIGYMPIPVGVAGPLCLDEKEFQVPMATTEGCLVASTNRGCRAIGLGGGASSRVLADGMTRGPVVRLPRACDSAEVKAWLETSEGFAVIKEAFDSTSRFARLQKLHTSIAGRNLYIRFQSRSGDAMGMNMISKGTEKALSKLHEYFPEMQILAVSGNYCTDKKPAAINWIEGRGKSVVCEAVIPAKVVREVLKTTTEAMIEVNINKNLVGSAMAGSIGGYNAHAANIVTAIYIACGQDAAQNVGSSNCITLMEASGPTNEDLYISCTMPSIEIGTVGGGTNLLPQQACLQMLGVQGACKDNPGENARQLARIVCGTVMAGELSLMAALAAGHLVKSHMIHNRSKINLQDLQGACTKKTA
Experimental: In addition, compounds 781430, 781066, 780780, 780754, 779974, 781456, 782236, 782756, 783250 and 780520 were tested in enzymatic activity-based HMG-CoA reductase assays. […] Blank cells indicate there was no detectable interaction while the “nd” designation indicates the Kd was not determined.

PDE6D [2] = biological target: T2, PDE6D; assay: Binding assay with E. coli-expressed human PDE6D; design: made in house; host or cells: T7 phage amplified in E. coli; details: 10 μM competitors; dot blot
Experimental: The full-length coding sequence for human PDE6D was cloned into the pRSET vector for E. coli expression. The PDE6D coding sequence was fused in-frame with a His tag for purification purposes. […] The experiments were performed in duplicate. The data were obtained by loading the eluates from the binding experiment on a dot blot apparatus and subsequent detection with a PDE6D-specific antibody.

rat liver NQO2 = biological target: T4, rat liver NQO2 (Rattus norvegicus, UniProt Q6AY80); assay: Binding curve assay, rat liver NQO2 and atorvastatin bait; details: rat liver extract; semi-quantitative, densitometric scanning of silver-stained gel; read-out: apparent Kd NQO2
T4 construct: from tissue; host or cells: rat liver protein extract
T4 sequence (Q6AY80 1-231): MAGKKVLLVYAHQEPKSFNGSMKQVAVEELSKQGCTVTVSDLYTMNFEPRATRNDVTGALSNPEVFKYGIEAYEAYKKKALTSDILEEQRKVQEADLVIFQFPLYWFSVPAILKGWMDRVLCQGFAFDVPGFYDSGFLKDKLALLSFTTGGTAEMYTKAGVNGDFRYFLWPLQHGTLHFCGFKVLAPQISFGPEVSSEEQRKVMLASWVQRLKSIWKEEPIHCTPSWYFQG

[3] = biological target: T5, PDE6D::HA11 fusion protein (Homo sapiens, UniProt O43924); assay: Binding assay with rabbit reticulocyte lysate-produced human PDE6D; details: absence or presence of 10 μM non-immobilized atorvastatin; dot blot
T5 construct: made in house; host or cells: coupled transcription-translation in rabbit reticulocyte lysate (pTNT vector)

NQO2 = biological target: T6, NQO2 (Rattus norvegicus, UniProt Q6AY80); assay: NQO2 binding pocket competition experiment, rat brain protein extract; details: competitors menadione, quercetin, FAD
T6 construct: from tissue; host or cells: rat liver or brain protein extract
T6 sequence (Q6AY80 1-231): T4 sequence (Q6AY80 1-231)
Excerpt: The crystal structure of the NQO2 protein has shown that this protein contains three distinct binding pockets. […] The data were obtained by loading the pooled eluates on a SDS-PAGE gel followed by silver staining.

Structure (SMILES)	Kd (CLB2) [nM]	Kd (PDE6D [1]) [nM]	inhibition of the activity of HMG-CoA reductase (HMG-CoA reductase)	binding of E. coli expressed human PDE6D to immobilized atorvastatin bait (PDE6D [2])	Kd (rat liver NQO2) [nM]	binding of PDE6D::HA11 fusion protein to immobilized atorvastatin bait [3]	NQO2 binding pocket (NQO2)
CC(C)c1[nH]c(-c2ccc(F)cc2)c(-c2ccccc2)c1C(=O)Nc1ccccc1 [Compound 781430]	940	75	none of the tested compounds inhibited	–	–	–	–
CC(C)c1c(C(=O)Nc2ccccc2)c(-c2ccccc2)c(-c2ccc(F)cc2)n1CC(O)C(O)C(O)C(O)CO (stereo not drawn) [Compound 782236]	–	269	none of the tested compounds inhibited	–	–	–	–
CC(C)c1c(C(=O)Nc2ccccc2)c(-c2ccccc2)c(-c2ccc(F)cc2)n1CC[C@@H](O)C[C@@H](O)CC(=O)O [atorvastatin, reference compound]	–	–	–	E. coli expressed human PDE6D binds to atorvastatin	~500	PDE6D bound to atorvastatin	binds the electron donor NRH pocket
